≈ marks a conversion by molar mass, not a printed value. Calls of active or inactive are those of the source. The calls are words filed in the database; no cut-off is given here.
Assays:
Pseudomonas aeruginosa = test: Antimicrobial activity against Pseudomonas aeruginosa; type: functional
Escherichia coli = test: Antimicrobial activity against Escherichia coli; type: functional
Candida albicans = test: Antimicrobial activity against fluconazole-resistant Candida albicans; type: functional
Staphylococcus aureus [1] = test: Antimicrobial activity against Staphylococcus aureus 29; type: functional
Staphylococcus aureus [2] = test: Antimicrobial activity against methicillin-resistant Staphylococcus aureus 011; type: functional
Staphylococcus aureus [3] = test: Antimicrobial activity against Staphylococcus aureus 10; type: functional
[4] = Selectivity index, ratio of HC50 for hemolytic activity against Mianyang red blood cells (unknown origin) to MIC for antimicrobial activity against methicillin resistant Staphylococcus aureus 003; type: toxicity, cell-based, RBC; conditions: read-out: Selectivity Index
Staphylococcus aureus [5] = test: Antimicrobial activity against methicillin-resistant Staphylococcus aureus 003; type: functional
[6] = Hemolytic activity against Mianyang red blood cells (unknown origin); type: toxicity, cell-based, RBC
Enterococcus faecalis = test: Antimicrobial activity against vancomycin resistant Enterococcus faecalis ATCC 51299; type: functional
Staphylococcus aureus [7] = test: Antimicrobial activity against Staphylococcus aureus 31; type: functional
Staphylococcus aureus [8] = test: Antibacterial activity against methicillin-resistant Staphylococcus aureus infected in cyclophosphamide-injected Kunming mouse model of skin wound infection assessed as wound repair by measuring reduction in wound area at 4 mg/kg measured for 7 days by photographic analysis; type: functional, organism-based; conditions: time 7.0 day
Staphylococcus aureus [9] = test: Antibacterial activity against methicillin-resistant Staphylococcus aureus infected in cyclophosphamide-injected Kunming mouse model of skin wound infection assessed as reduction in bacterial load in skin at 4 mg/kg measured after 7 days; type: functional; conditions: time 7 day

| SMILES | MIC (Pseudomonas aeruginosa) | MIC (Escherichia coli) | MIC (Candida albicans) | MIC (Staphylococcus aureus [1]) | MIC (Staphylococcus aureus [2]) | MIC (Staphylococcus aureus [3]) | selectivity ratio [4] | MIC (Staphylococcus aureus [5]) | HC50 [6] | MIC (Enterococcus faecalis) | MIC (Staphylococcus aureus [7]) | Activity (Staphylococcus aureus [8]) | Activity (Staphylococcus aureus [9]) |
| --- | --- | --- | --- | --- | --- | --- | --- | --- | --- | --- | --- | --- | --- |
| CC1(C)CC[C@]2(C(=O)O)CC[C@]3(C)C(=CC[C@@H]4[C@@]5(C)CC[C@H](OC(=O)CCCC(=O)O)C(C)(C)[C@@H]5CC[C@]43C)[C@@H]2C1 | > 64 µg/mL | > 64 µg/mL | 32 µg/mL (≈ 56.1 µM) | 32 µg/mL (≈ 56.1 µM) | 32 µg/mL (≈ 56.1 µM) | 32 µg/mL (≈ 56.1 µM) | > 32 | 32 µg/mL (≈ 56.1 µM) | > 1020 µg/mL | 32 µg/mL (≈ 56.1 µM) | 64 µg/mL (≈ 112 µM) | – | – |
| CC(=O)O[C@H]1CC[C@]2(C)[C@H]3CC=C4[C@@H]5CC(C)(C)CC[C@]5(C(=O)NCCCCNC(=N)N)CC[C@@]4(C)[C@]3(C)CC[C@H]2C1(C)C | > 64 µg/mL | > 64 µg/mL | 2 µg/mL (≈ 3.27 µM) | 2 µg/mL (≈ 3.27 µM) | 2 µg/mL (≈ 3.27 µM) | 2 µg/mL (≈ 3.27 µM) | 142 | 2 µg/mL (≈ 3.27 µM) | 284 µg/mL | 2 µg/mL (≈ 3.27 µM) | 4 µg/mL (≈ 6.55 µM) | – | – |
| CC(=O)O[C@H]1CC[C@]2(C)[C@H]3CC=C4[C@@H]5CC(C)(C)CC[C@]5(C(=O)NCCCCCCCCNC(=N)N)CC[C@@]4(C)[C@]3(C)CC[C@H]2C1(C)C | > 64 µg/mL | > 64 µg/mL | 16 µg/mL (≈ 24 µM) | 4 µg/mL (≈ 6 µM) | 2 µg/mL (≈ 3 µM) | 4 µg/mL (≈ 6 µM) | 57.9 | 4 µg/mL (≈ 6 µM) | 232 µg/mL | 8 µg/mL (≈ 12 µM) | 16 µg/mL (≈ 24 µM) | – | – |
| CN[C@H](CC(C)C)C(=O)N[C@H]1C(=O)N[C@@H](CC(N)=O)C(=O)N[C@H]2C(=O)N[C@H]3C(=O)N[C@H](C(=O)N[C@H](C(=O)O)c4cc(O)cc(O)c4-c4cc3ccc4O)[C@H](O)c3ccc(c(Cl)c3)Oc3cc2cc(c3O[C@@H]2O[C@H](CO)[C@@H](O)[C@H](O)[C@H]2O[C@H]2C[C@](C)(N)[C@H](O)[C@H](C)O2)Oc2ccc(cc2Cl)[C@H]1O [VANCOMYCIN] | – | – | – | – | – | – | – | – | > 256 µg/mL | 2 µg/mL (≈ 1.38 µM) | – | Active | 0.9 log10CFU/mg |
| CC(=O)O[C@H]1CC[C@]2(C)[C@H]3CC=C4[C@@H]5CC(C)(C)CC[C@]5(C(=O)NCCCN)CC[C@@]4(C)[C@]3(C)CC[C@H]2C1(C)C | > 64 µg/mL | > 64 µg/mL | 2 µg/mL (≈ 3.6 µM) | 4 µg/mL (≈ 7.21 µM) | 2 µg/mL (≈ 3.6 µM) | 4 µg/mL (≈ 7.21 µM) | 39.2 | 2 µg/mL (≈ 3.6 µM) | 78.5 µg/mL | 4 µg/mL (≈ 7.21 µM) | 8 µg/mL (≈ 14.4 µM) | – | – |

Source: ChEMBL document CHEMBL6127107, “Oleanolic acid derivatives against drug-resistant bacteria and fungi by multi-targets to avoid drug resistance” (Eur J Med Chem, 2024)
